Reference: ChEMBL document CHEMBL1201862, “PubChem BioAssay data set” (2004)
Calls of active or inactive are those of the source.

Columns and labels:
[1] = M. tuberculosis growth inhibition, HTS (AID 449762); assay type: functional
NADPH oxidase 1 = NADPH oxidase 1 (Homo sapiens, UniProt Q9Y5S8); experiment: Late-stage luminescence-based cell-based dose response assay to identify inhibitors of NADPH oxidase 1 (NOX1): Synthesized analogs 2.; assay type: functional
[2] = target: Tyrosyl-DNA phosphodiesterase 2 (Homo sapiens, UniProt O95551); experiment: potency against TDP2 phosphodiesterase activity – biochemical, epi absorbance, IC50, dose response (AID 743297)
Caspase-7 = Caspase-7 (Homo sapiens, UniProt P55210); experiment: caspase-7 enzyme inhibition, selectivity check – biochemical, DEVD-R110 fluorescence, cherry-pick, selectivity assay for caspase-6 inhibitor project, dose response (AID 743295); assay type: functional
Caspase-3 = target: T1, Caspase-3 (Homo sapiens, UniProt P42574); experiment: human caspase-3 protease activity blockade – biochemical, fluorescence, cherry-picked samples, selectivity assay for caspase-6 allosteric inhibitor project, dose response (AID 743291)
T1 sequence (P42574 whole entry): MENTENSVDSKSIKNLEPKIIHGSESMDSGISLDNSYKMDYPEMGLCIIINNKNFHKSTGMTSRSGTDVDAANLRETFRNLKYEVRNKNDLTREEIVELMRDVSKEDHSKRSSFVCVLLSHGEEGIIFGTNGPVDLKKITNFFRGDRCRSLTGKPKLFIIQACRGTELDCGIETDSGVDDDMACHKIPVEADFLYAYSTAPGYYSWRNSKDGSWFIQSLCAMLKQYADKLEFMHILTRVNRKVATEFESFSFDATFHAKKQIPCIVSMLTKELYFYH

Caspase-9 = Caspase-9 (Homo sapiens, UniProt P55211); experiment: inhibitors of purified CASP9 protease – biochemical, fluorescence, plate reader, cherry-picked samples, selectivity assay for caspase-6 inhibitor project, dose response (AID 743293)
[3] = target: T2, Polyadenylate-binding protein 1 (Homo sapiens, UniProt P11940); experiment: MLLE binding blockers, Cy5 peptide tracer – biochemical, fluorescence polarization, Cy5-PAM2 peptide, secondary, miRNA deadenylation inhibitor project, dose response (AID 602260); assay type: functional; conditions: read-out: IC50_Mean
Protein skinhead-1 = target: T3, Protein skinhead-1 (Caenorhabditis elegans, UniProt P34707); assay type: functional
T3 sequence (P34707 whole entry): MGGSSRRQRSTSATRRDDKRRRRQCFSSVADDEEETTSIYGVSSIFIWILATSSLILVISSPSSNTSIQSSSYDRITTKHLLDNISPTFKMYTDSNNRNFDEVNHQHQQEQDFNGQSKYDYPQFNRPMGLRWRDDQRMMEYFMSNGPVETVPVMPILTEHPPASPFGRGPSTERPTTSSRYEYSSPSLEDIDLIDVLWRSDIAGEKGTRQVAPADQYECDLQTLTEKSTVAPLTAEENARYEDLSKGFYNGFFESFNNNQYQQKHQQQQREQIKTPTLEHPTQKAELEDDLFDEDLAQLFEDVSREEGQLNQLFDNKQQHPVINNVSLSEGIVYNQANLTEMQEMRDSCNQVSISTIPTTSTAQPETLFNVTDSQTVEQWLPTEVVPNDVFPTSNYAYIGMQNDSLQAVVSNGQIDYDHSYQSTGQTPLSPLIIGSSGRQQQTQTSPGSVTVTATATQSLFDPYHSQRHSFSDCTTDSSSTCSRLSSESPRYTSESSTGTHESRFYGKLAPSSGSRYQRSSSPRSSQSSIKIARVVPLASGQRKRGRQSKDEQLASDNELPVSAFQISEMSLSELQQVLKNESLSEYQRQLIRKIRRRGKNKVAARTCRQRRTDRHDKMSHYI

Caspase-6 = Caspase-6 (Homo sapiens, UniProt P55212); experiment: inhibition of CASP6 peptide cleavage – biochemical, VEID-R110 fluorescence, cherry-pick, dose response (AID 720632)
[4] = target: T2, Polyadenylate-binding protein 1; experiment: MLLE domain peptide-binding blockers, IC50 – biochemical, fluorescence polarization, FITC-PAM2 peptide, dose response (AID 602259); assay type: functional; conditions: read-out: IC50_Mean
Caspase-8 = Caspase-8 (Homo sapiens, UniProt Q14790); experiment: inhibitors of purified CASP8 protease – biochemical, Z-IETD-R110 fluorescence, cherry-picked samples, selectivity assay for caspase-6 inhibitor project, dose response (AID 743294)
[5] = target: T4, Sphingosine 1-phosphate receptor 1 (Homo sapiens, UniProt P21453); experiment: Late stage counterscreen assay for S1P4 antagonists: Fluorescence dose response cell-based screening assay for antagonists of the Sphingosine 1-Phosphate Receptor 1 (S1P1). [Related pubchem assays (depositor defined):AID1510, AID1524, AID1692, AID1853, AID2332, AID489009, AID489017]; assay type: functional
[6] = target: Sphingosine 1-phosphate receptor 3 (Homo sapiens, UniProt Q99500); experiment: Late stage counterscreen assay for S1P4 antagonists: Fluorescence dose response cell-based screening assay for antagonists of the Sphingosine 1-Phosphate Receptor 3 (S1P3). [Related pubchem assays (depositor defined):AID1510, AID1524, AID1692, AID1853, AID2332, AID489009, AID489017]; assay type: functional
[7] = target: T4, Sphingosine 1-phosphate receptor 1; assay type: functional
[8] = target: Sphingosine 1-phosphate receptor 2 (Homo sapiens, UniProt O95136); experiment: Late stage counterscreen assay for S1P4 antagonists: Fluorescence dose response cell-based screening assay for antagonists of the Sphingosine 1-Phosphate Receptor 2 (S1P2). [Related pubchem assays (depositor defined):AID1510, AID1524, AID1692, AID1853, AID2332, AID489009, AID489017]; assay type: functional
[9] = target: Sphingosine 1-phosphate receptor 5 (Homo sapiens, UniProt Q9H228); experiment: Late stage counterscreen assay for S1P4 antagonists: Fluorescence dose response cell-based screening assay for antagonists of the Sphingosine 1-Phosphate Receptor 5 (S1P5). [Related pubchem assays (depositor defined):AID1510, AID1524, AID1692, AID1853, AID2332, AID489009, AID489017]; assay type: functional
[10] = target: T5, Sphingosine 1-phosphate receptor 4 (Homo sapiens, UniProt O95977); experiment: Fluorescence dose response cell-based high throughput screening assay for antagonists of the Sphingosine 1-Phosphate Receptor 4 (S1P4). [Related pubchem assays: 1524 (Confirmation in triplicates.), 1510 (Primary screen.)]; assay type: functional
T5 sequence (O95977 whole entry): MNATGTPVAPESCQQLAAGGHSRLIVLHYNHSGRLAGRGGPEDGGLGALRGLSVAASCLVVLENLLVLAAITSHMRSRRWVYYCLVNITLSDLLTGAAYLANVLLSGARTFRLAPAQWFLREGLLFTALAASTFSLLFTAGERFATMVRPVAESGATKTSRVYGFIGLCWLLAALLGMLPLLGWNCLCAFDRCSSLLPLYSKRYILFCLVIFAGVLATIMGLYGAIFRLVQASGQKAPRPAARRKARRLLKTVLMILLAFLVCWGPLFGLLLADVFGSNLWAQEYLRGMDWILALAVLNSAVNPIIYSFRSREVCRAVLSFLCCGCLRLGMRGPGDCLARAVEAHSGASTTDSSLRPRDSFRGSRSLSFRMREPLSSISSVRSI

[11] = target: T5, Sphingosine 1-phosphate receptor 4; experiment: Late stage fluorescence dose response cell-based screening assay for antagonists of the Sphingosine 1-Phosphate Receptor 4 (S1P4). [Related pubchem assays: 1524 (Confirmation screen (S1P4 antagonists).), 1510 (Primary screen (S1P4 antagonists).), 1853 (Summary AID (S1P4 antagonists).), 1692 (Dose response screen (S1P4 antagonists).)]; assay type: functional
Ephrin type-A receptor 4 = Ephrin type-A receptor 4 (Mus musculus, UniProt Q03137); experiment: EphA4 ligand-binding antagonists – biochemical, colorimetric, mouse EphA4, primary screen (AID 689); assay type: functional
[12] = Luminescence-based cell-based high throughput dose response assay to identify activators of the DAF-12 from the parasite S. stercoralis (ssDAF-12).; assay type: functional
[13] = target: T6, Oxysterols receptor LXR-beta (Homo sapiens, UniProt P55055); experiment: LXR agonists, Gal4 luciferase reporter, dose response, counter-screen for ssDAF-12 agonist project, cell-based, luminescence, HEK293, S. stercoralis campaign (AID 720737); assay type: functional; conditions: read-out: IC50 (the source's name)
T6 sequence (P55055 whole entry): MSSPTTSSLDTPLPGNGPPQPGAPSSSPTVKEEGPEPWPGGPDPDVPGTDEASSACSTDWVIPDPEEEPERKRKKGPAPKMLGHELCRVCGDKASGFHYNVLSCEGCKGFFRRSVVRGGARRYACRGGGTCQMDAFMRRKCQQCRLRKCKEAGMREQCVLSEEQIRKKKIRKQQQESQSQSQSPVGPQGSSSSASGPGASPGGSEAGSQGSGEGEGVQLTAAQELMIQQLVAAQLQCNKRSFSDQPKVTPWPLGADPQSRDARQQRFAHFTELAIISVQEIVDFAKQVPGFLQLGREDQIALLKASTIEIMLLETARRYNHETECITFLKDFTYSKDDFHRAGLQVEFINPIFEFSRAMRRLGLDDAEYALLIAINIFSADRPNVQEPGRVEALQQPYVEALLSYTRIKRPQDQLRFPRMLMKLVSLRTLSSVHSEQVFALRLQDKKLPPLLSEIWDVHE

T2 sequence (P11940 whole entry): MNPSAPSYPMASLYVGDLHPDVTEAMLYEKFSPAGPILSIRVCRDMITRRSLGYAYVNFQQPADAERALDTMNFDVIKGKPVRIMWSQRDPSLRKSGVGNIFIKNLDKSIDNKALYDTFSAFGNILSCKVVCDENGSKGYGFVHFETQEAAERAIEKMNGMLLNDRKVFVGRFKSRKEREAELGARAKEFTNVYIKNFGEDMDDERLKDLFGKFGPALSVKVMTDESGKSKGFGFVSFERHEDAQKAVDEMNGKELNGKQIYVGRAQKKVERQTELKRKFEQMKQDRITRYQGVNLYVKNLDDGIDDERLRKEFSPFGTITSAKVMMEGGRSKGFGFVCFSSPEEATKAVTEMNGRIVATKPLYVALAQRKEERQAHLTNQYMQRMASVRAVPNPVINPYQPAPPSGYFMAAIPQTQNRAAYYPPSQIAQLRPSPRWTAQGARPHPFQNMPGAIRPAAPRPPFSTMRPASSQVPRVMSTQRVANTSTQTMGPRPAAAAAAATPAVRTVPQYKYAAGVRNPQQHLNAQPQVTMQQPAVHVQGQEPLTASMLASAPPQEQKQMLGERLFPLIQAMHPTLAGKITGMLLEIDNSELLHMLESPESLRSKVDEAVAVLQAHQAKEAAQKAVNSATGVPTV
T4 sequence (P21453 whole entry): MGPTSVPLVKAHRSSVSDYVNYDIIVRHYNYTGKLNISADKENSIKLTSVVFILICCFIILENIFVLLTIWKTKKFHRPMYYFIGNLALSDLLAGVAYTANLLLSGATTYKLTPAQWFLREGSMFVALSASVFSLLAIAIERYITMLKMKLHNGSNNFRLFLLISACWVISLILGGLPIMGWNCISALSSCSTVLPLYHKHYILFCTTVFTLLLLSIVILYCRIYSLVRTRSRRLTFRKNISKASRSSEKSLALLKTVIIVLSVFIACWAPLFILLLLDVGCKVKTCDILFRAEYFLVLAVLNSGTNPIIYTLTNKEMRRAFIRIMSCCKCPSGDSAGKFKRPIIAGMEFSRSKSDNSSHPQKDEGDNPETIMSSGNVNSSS
Caspase-6, sequence (P55212 24-179 limits assumed): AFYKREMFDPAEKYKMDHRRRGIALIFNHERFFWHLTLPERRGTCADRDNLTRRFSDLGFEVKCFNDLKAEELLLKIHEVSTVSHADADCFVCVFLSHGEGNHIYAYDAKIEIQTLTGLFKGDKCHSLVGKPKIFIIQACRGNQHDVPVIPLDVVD
Caspase-6, sequence (P55212 194-293 limits assumed): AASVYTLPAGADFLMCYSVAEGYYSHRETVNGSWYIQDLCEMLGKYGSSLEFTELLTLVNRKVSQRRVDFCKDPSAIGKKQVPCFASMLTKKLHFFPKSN
Caspase-9, sequence (P55211 1-315 limits assumed): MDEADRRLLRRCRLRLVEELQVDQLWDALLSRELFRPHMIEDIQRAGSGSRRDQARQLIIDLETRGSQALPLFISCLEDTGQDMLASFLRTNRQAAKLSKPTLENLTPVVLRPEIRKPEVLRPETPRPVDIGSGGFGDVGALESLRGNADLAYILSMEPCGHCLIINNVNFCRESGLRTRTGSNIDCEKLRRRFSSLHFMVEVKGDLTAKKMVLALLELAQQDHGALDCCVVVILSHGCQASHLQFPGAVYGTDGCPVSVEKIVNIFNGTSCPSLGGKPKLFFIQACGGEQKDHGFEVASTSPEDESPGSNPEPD
Caspase-9, sequence (P55211 331-416 limits assumed): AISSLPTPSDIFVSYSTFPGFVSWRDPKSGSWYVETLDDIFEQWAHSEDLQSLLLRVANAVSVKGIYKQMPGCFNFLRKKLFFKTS
Ephrin type-A receptor 4, sequence (Q03137 whole entry): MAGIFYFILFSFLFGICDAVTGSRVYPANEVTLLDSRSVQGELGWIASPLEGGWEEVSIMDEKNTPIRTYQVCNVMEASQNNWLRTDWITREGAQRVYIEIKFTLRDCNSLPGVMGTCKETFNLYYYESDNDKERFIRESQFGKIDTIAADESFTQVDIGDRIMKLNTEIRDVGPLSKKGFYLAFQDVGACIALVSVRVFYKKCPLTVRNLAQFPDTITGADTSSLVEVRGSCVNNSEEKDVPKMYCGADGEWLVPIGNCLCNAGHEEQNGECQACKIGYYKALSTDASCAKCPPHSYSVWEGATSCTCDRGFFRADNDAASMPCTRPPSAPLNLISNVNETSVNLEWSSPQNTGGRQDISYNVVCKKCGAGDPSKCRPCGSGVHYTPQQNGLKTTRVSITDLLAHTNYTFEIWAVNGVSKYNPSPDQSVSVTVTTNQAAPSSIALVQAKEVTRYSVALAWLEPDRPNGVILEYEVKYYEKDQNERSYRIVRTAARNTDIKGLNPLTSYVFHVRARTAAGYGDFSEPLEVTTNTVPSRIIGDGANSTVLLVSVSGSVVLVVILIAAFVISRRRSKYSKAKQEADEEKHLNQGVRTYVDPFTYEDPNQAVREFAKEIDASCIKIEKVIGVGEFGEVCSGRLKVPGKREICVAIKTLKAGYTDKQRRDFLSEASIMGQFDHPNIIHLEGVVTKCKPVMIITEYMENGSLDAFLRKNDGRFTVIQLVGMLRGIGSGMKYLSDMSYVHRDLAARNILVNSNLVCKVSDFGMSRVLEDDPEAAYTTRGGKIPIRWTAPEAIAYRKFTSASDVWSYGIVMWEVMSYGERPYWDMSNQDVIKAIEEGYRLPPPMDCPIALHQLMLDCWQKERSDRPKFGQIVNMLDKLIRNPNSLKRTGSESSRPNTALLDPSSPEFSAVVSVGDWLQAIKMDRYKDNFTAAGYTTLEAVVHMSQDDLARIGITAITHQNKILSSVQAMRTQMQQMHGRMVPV
Caspase-7, sequence (P55210 24-198 limits assumed): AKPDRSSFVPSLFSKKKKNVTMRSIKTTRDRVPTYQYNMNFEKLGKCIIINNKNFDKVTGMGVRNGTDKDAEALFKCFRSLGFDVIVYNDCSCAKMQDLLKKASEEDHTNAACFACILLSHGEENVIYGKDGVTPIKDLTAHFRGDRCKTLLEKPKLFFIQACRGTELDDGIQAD
Caspase-7, sequence (P55210 207-303 limits assumed): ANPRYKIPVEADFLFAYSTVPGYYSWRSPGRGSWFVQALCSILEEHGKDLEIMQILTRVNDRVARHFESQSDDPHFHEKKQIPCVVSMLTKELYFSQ
Sphingosine 1-phosphate receptor 3, sequence (Q99500 whole entry): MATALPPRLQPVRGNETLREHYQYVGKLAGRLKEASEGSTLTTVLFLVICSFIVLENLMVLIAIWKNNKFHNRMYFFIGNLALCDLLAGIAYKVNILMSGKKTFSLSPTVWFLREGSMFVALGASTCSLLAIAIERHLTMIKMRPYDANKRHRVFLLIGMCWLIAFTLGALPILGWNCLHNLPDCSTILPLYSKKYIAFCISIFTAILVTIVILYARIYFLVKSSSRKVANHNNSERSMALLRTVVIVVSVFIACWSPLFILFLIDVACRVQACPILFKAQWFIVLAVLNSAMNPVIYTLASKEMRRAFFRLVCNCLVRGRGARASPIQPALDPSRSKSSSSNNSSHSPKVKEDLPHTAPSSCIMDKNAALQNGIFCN
Sphingosine 1-phosphate receptor 5, sequence (Q9H228 whole entry): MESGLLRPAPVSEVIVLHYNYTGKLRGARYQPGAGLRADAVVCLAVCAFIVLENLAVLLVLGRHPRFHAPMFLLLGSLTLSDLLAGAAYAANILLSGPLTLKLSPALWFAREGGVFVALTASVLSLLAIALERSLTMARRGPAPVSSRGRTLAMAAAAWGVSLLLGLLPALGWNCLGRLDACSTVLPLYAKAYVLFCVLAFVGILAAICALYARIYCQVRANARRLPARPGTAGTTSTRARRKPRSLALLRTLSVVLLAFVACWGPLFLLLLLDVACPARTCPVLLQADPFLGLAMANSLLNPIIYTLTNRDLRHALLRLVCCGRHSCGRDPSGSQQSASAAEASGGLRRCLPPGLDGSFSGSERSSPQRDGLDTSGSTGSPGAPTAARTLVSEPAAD
NADPH oxidase 1, sequence (Q9Y5S8 whole entry): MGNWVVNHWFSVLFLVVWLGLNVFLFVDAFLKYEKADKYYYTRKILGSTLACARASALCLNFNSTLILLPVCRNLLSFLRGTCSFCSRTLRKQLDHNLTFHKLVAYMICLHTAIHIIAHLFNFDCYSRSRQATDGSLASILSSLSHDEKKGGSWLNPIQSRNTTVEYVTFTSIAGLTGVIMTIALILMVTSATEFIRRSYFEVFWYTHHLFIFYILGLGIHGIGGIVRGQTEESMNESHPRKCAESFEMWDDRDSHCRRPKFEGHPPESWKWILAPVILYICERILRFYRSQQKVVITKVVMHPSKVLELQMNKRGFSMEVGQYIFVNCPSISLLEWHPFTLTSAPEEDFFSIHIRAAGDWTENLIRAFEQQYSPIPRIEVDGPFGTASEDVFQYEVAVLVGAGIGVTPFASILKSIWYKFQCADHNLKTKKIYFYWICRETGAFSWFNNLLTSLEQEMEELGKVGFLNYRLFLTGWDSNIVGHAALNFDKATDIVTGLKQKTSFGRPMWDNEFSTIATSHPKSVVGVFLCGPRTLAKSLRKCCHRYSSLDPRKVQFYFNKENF
Tyrosyl-DNA phosphodiesterase 2, sequence (O95551 whole entry): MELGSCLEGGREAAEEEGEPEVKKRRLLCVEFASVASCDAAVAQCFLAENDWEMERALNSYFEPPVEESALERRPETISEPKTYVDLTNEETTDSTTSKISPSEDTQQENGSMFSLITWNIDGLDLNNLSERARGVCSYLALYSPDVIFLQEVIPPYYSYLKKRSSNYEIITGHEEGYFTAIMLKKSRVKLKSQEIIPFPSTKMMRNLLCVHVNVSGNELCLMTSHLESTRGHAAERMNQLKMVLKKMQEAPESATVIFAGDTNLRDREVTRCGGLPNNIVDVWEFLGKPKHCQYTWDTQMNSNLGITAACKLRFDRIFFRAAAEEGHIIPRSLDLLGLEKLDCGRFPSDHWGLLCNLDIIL

With `CC(C)c1ccc2[nH]c(O)c(N=NC(=O)c3ccc(CSc4nncn4C)cc3)c2c1` the IC50 [1] was > 100 µM (active).

In the case of `CN1c2ccc(N=[N+]=[N-])cc2Sc2cc(N=[N+]=[N-])ccc21`, the IC50 (NADPH oxidase 1) is reported as 7.05 µM (active).

In the case of `Cn1c(=O)c2c(-c3ccccc3)n(-c3ccc(N)cc3)cc2n(C)c1=O`, the IC50 [2] is reported as > 128 µM (inactive), the AC50 (Caspase-7) is reported as 8.62 µM (active) and the AC50 (Caspase-3) is reported as 19.2 µM (active). The AC50 (Caspase-9) was 69.8 µM (active), the IC50 [3] was > 66 µM (inactive) and the IC50 (Protein skinhead-1) was 73.6 µM (inactive). For the same compound, the AC50 (Caspase-6) was 1.07 µM (active), the IC50 [4] was 38.4 µM (inactive) and the AC50 (Caspase-8) was > 70 µM (inactive).

With `Cc1cc(NC(=O)/C=C/c2ccccc2)c(C(C)C)cc1O` the IC50 [5] was > 25 µM (inactive), the IC50 [6] was > 25 µM (inactive) and the IC50 [7] was > 49.8 µM (not active). For the same compound, the IC50 [8] was > 25 µM (inactive), the IC50 [9] was > 25 µM (inactive) and the IC50 [10] was 0.852 µM (active). The IC50 [11] was 0.338 µM (active).

In the case of `CCn1c2ccc(Cl)cc2c2nc3ccccc3nc21`, the IC50 (Ephrin type-A receptor 4) is reported as 18.2 µM (active).

For `O=C(Nc1cccc(O)c1)c1c(O)nc2ccccc2c1O`, the IC50 [12] was > 67.5 µM (inactive) and the EC50 [13] was > 67.5 µM (inactive).
